For assay [1], the system named is IFN-γ-producing OVA257-264-specific CD8 T cells. Briefly: Vaccination with ZEBRA CPP truncation constructs plus TLR agonist adjuvant, IFN-γ Elispot on spleen cells, CD8. The class given is in vivo, mice. The procedure:
Mice were vaccinated three times (wk0, wk2 and wk9) by s.c. injection (right flank) of 10 nmoles of OVACD8CD4 (the cargo without Zebra CPP truncation), Z13OVACD8CD4, Z14OVACD8CD4, Z15OVACD8CD4, Z18OVACD8CD4 and i.m. injection of 50 μg of Hiltonol (right hind leg). One week after the last vaccination, Elispot assay was performed on spleen cells for detecting IFN-y-producing OVA257-264-specific CD8 T cells (A) and OVA323-339-specific CD4 T cells (B). *, p<0.05; **, p<0.01.
Mice were vaccinated three times (wk0, wk2 and wk9) by s.c. injection (right flank) of 10 nmoles of OVACD8CD4 (the cargo without Zebra CPP truncation), Z13OVACD8CD4, Z14OVACD8CD4, Z15OVACD8CD4 or Z18OVACD8CD4 and 20 μg of Pam3CSK4. One week after the last vaccination, Elispot assay was performed on spleen cells for detecting IFN-γ-producing OVA257-264-specific CD8 T cells (A) and OVA323-339-specific CD4 T cells (B). *, p<0.05; **, p<0.01.
Mice were vaccinated three times (wk0, wk2 and wk9) by s.c. injection (right flank) of 10 nmoles of Z13OVACD8CD4, Z15OVACD8CD4 or Z18OVACD8CD4 and 20 μg of MPLA. One week after the last vaccination, Elispot assay was performed on spleen cells for detecting IFN-γ-producing OVA257-264-specific CD8 T cells (A) and OVA323-339-specific CD4 T cells (B). *, p<0.05; **, p<0.01.
To extend the previous findings to in vivo vaccination, Z13, Z14, Z15 and Z18 conjugated to antigenic cargo containing both CD8 and CD4 T cell epitopes from OVA (as described in Example 4 for Z13, Z15 and Z18) was synthesized. For Z14 the construct was as follows:
Firstly, those constructs were tested with Hiltonol adjuvant (a TLR3 agonist). […] The number of peptide-specific IFN-γ-producing cells was calculated by subtracting the number of IFN-γ-secreting cells cultured without peptide to that obtained with cells cultured with peptide. […]

Assay [2] deals with OVA323-339-specific CD4+ T cells from OT-2 T cell TCR transgenic mice. Kind of assay: In vitro epitope presentation assay, MHC class II (BMDCs, proliferation of OT-2 T cells). It is filed as cell-based, mouse. The conditions noted are these: for in vitro proliferation of CD4 T cells (MHC class II presentation): BMDCs loaded 4 h with 300 nM ZxxOVACD8CD4, LPS o.n., 4 days. The procedure:
BMDCs were loaded 4 h with 300nM of the different Zebra CPP truncation conjugated to both ovalbumin CD8 and CD4 epitopes (Z13OVACD8CD4, Z15OVACD8CD4 and Z18OVACD8CD4), then washed and incubated o.n. with 100 ng/ml of LPS. Efficient MHC class I or class II-restricted presentation was monitored after 4 days with CFSE-labeled naïve OVA257-264-specific CD8^+T cells from OT-1 T cell receptor (TCR) transgenic mice OT1 cells (A) or CFSE-labeled naïve OVA323-339-specific CD^+T cells from OT-2 T cell TCR transgenic mice respectively. As positive control, BMDCs were pulsed for 1 h with 5 uM peptide. Data from one experiment representative of three independent experiments.
In order to assess the capacity of the ZEBRA CPP truncations to stimulate an integrated immune response including CD4 T cells, antigenic cargoes were produced that included both CD8 and CD4 T cell epitopes from OVA, and conjugated to Z13, Z15 and Z18. Accordingly, the following constructs (Z13OVACD8CD4, Z15OVACD8CD4 and Z18OVACD8CD4) were synthesized:
Processing and presentation of the CD8 and CD4 T cell epitopes were monitored, as described in Example 2 for CD8 T cell epitopes, by measuring the in vitro proliferation of naïve OT-1 T cells (CD8 T cell epitopes; FIG. 4A) and OVA323-339-specific CD4^+ T cells from OT-2 T cell TCR transgenic mice, respectively (FIG. 4B). Briefly, OT-2 T cell TCR transgenic mice express TCR specific for MHC class II restricted OVA323-339.

In the case of “KRYKNRVASRKSRAKFK (CPP Z15) [ZEBRA CPP truncation]”, the “CD8 T cell immune responses, for any adjuvant” value in assay [1] (10 nmol ZxxOVACD8CD4 s.c. wk0, wk2, wk9, Hiltonol, Pam3CSK4 or MPLA) is recorded as “low CD8 T cell immune responses”. Further, the “in vitro proliferation of CD4 T cells (MHC class II presentation)” value (“in vitro proliferation of CD4 T cells” below) in assay [2] was “proliferation of both CD8 and CD4 T cells occurred”.

Regarding “KRYKNRVASRKSRAKFKQLLQHYREVAAAKSSENDRLRLLLK [Z13]”, the “CD8 immune response, combined with MPLA” value in assay [1] (10 nmol ZxxOVACD8CD4 s.c. wk0, wk2, wk9 and 20 μg MPLA (TLR4 agonist)) is “most efficacious”. Also, the “in vitro proliferation of CD4 T cells” value in assay [2] is “proliferation of both CD8 and CD4 T cells occurred”.

As for REVAAAKSSENDRLRLLLK [Z18], the “CD8 immune response, combined with Pam3CSK4” value in assay [1] (10 nmol ZxxOVACD8CD4 s.c. wk0, wk2, wk9 and 20 μg Pam3CSK4 (TLR2 agonist)) is “highest CD8 and CD4 immune response”. Besides, the “in vitro proliferation of CD4 T cells” value in assay [2] is “proliferation of both CD8 and CD4 T cells occurred”. Also, the “efficiency of DC transduction and cargo delivery into the MHC class II antigen processing pathway” value in assay [2] (ZxxOVACD8CD4, 300 nM, compared with Z13 or Z15) is “less efficient”.

Values taken from patent publication US20180133327A1, “Cell Penetrating Peptides and Complexes Comprising the Same” (Amal Therapeutics SA, priority 2015, published 2018).
